Key:
HUVEC cells = assay: Transfection of HUVEC cells with K14RGD/Lipofectin complexes, luciferase; assay type: cell-based; conditions: added to lipofectin core complexes; FIG. 25
Method: 20000 HUVEC cells were seeded to each well of a 96 well plate and cultured for 12 hr before transfection. 0 or 2 ug of K14RGD peptide was mixed with indicated amount of Lipofectin from 0.1 ul to 4 ul in 50 ul of serum free medium for 15 min. The mixture was added to 50 ul serum free medium containing 0.5 ug pCIluc2 DNA. The poly-lipoplex was incubated for 30 min before added to the cells. The transfection solution was removed after 3 hr and serum-containing medium was added to the cells.
At 24 hr, luciferase activity was measured with Promega luciferase assay kit according to the recommended procedure.

BL-6 cells = assay type: cell-based; conditions: polylysine core complexes; FIG. 8
mouse = assay: In vivo transfection with cationic lipid complexes containing fusogenic or steric surfactants; conditions: DOTAP:Chol core complexes; FIG. 7
Method: All lipids of a formulation including surfactants were dissolved in an organic solvent such as cyclohexane and mixed together at the desired ratio and then lyophilized to dryness. For example, 45 mg DOTAP and 25 mg cholesterol, or 10 mg GC-030 and 4.74 mg cholesterol were used for DOTAP:Chol and GC-030:Chol, respectively. Double distilled water was added to the lipid cake to give a final concentration of 10 mg/ml of cationic lipid (cholesterol is a neutral lipid that is not counted for calculation of lipid dispersion concentration or later for charge ratio with DNA) and allowed to hydrate at 70 C for 1 hr. The lipid dispersion was extruded through 100 nm pore carbonate membranes (Avanti Polar Lipids Inc) or vortexed for 1 min at room temperature.
Forty microgram of pCILuc was dissolved in 100 μl of 10% glucose and mixed by hand with different amount of lipids dispersion dissolved in 100 μl distilled H2O. The final concentration of Glucose is 5%. The mixing was performed by added the DNA solution to the lipid solution. The charge ratio of lipids to DNA in this mixture was indicated in the text. 200 μl of DNA/lipid complex solutions was injected into mouse tail vein. Each group had 3-5 mice. Five hours later, mice were sacrificed. […] Luciferase activity was determined by using luciferase assay system kit from Promega. […]

Compound: KKK KKK KKK KKK KKS CRG DC [Example K14RGD]
- expression, effect of peptide ligand (HUVEC cells): increased expression

Compound: GLF GAI EGF IEN GWE GWI DGW YGC KCK KKK KKK KKK KKK K [Example K14-Fuso]
- expression, effect of fusogenic peptide (BL-6 cells): increased expression

Compound: CCCCCCCC/C=C\CCCCCCCC(=O)OCCOCC(OCCO)C1OCC(OCCO)C1OCCO (stereo not drawn) [Tween 80]
- gene transfer in vivo, effect of additive (mouse): improved

Source: patent US20030166601A1, “Novel colloid synthetic vectors for gene therapy” (priority 1999, published 2003)
